Source: patent US9457044B2, “Methods and compositions for wound healing” (CoDa Therapeutics, Inc., priority 2006, dated 2016)

Key:
Swiss 3T3 fibroblasts = test: Cell migration assay by wounding (fibroblast scrape wound assay); assay type: cell-based; conditions: 20 μM for two hours before scrape wound; 4 hours after wounding
Method: Swiss 3T3 fibroblasts were grown in Dulbecco's modified Eagle's medium (DMEM; Gibco) supplemented with 10% fetal calf serum (Labtech) and 1% penicillinstreptomycin solution (Sigma, Poole) in a 5% CO2 incubator at 37° C. Unless otherwise stated, the cells were maintained in this medium for most experiments. The cells were passaged by trypsinization and used at passages 6-10 at a confluency of Z 90%. Cells were plated on 13 mm glass coverslips in 24-well dishes (Nunc) with 4−5×10^5 cells per well containing 1 ml of medium. Cells reached confluency after 72 hours and were then used for experimentation.
The fibroblast cell assay involved creating a “wound” in a confluent monolayer of fibroblast cells. This widely used in vitro technique mimics the behaviour of migrating cells in vivo (Lampugnani, M. G. (1999) Cell Migration into a wounded area in vitro. Methods Mol Biol 96: 177-182). Wounding was performed by drawing a microelectrode across the coverslip, producing a lesion of standard width. Phase contrast images were acquired using a ×5 objective on a Zeiss inverted microscope with an incubation chamber at 370 and 5% CO2. […] Migration was quantified by image analysis, measuring the change in wound area (pixels) using Image J software (NIH). […]

skin wounds = conditions: Qiu 2003; Coutinho 2005; cited from earlier work
TGF-β1 mRNA = test: Real-Time PCR of TGF-β1 at wound sites; assay type: in vivo, mice
Method: (§1) Male, 8 week old, ICR mice were used in the following experiments. All the mice were kept under specific pathogen-free conditions in an environmentally controlled clean room at University College London and all the experiments were carried out under UK Home Office regulations. Mice were anaesthetized by halothane inhalation. Four full-thickness excisional wounds of 6 mm diameter were made on the shaved back on either side of the dorsal midline with a 6 mm biopsy punch (Kai Industries). To each pair of wounds a single topical application of 50 μl of 1 μM Cx43 as ODN (SEQ. ID No. 2) (Sigma-Genosys) in 30% Pluronic F-127 gel (Sigma-Aldrich), chilled on ice, was made to one wound, and an identical application of 1 μM sense control sODNs was made to the other. […] R. and Becker, D. L. (2003). Targeting connexin 43 expression accelerates the rate of wound repair. Curr Biol 13, 1697-703). Each wound region was digitally photographed at the indicated time intervals, and the areas of the wounds were calculated. All wound areas were expressed as percentages of the initial wound areas. […]
Gene specific primers and probe were obtained as TaqMan® Gene Expression Assays (Applied Biosystems) for Cx43, Ccl2, Co1α1, TNFα and TGFβ1. […] Each sample was analyzed in duplicate. […]

IGFBP-2 = test: Growth factor/cytokine antibody array of chimera: IGFBP-2; assay type: cell-based, human; conditions: after two weeks in culture
Method: Cell denuded pig stroma chimeras were cultured for two weeks and then assessed using a growth factor/cytokine antibody array (measures protein levels of 120 different growth factors/cytokines.
After two weeks in culture the chimeras were cut in half: one half for histological analysis, and the other for growth factor and cytokine array analysis. For growth factor and cytokine analysis the central stromal region (with fully recovered human cell epithelium) and partially repopulated stroma (human keratocytes) was removed and homogenised separately from the human limbal rim which contains stem cell populations. The homogenates were run on a growth factor/cytokine array (FIG. 15) and analysis of growth factor levels performed using densitometry analysis of the array membranes.

fibroblast like cells = test: Fibroblast-like cell count at wound margin (rhodamine phalloidin/DAPI); assay type: in vivo, mice; conditions: 2 day wounds; P<0.01
Method: as §1
A treatment-blinded observer counted MPO-positive neutrophils and F4/80-positive macrophages in the wound bed (defined as the area surrounded by unwounded skin, fascia, regenerated epidermis, and eschar) in 3 random high-power fields of 0.332 mm^2. […]

GTAATTGCGGCAGGAGGAATTGTTTCTGTC (antisense GTAATTGCGGCAGGAGGAATTGTTTCTGTC; in Pluronic F-127 gel, further chemistry not given here) [Cx43 asODN]
rate of wound closure in fibroblast cultures compared to controls (Swiss 3T3 fibroblasts): significantly (P=0.02) enhanced | healing of skin wound and burn injury sites versus control sODN (skin wounds): significantly accelerated healing | expression of TGF-β1 mRNA versus control sODN-treated wounds (TGF-β1 mRNA; day 2 after the injury, P<0.05): significantly increased | expression of TGF-β1 mRNA, control versus treated wounds (TGF-β1 mRNA; days 1 and 7): no difference | level of IGFBP-2 in limbal rim and stroma compared with untreated controls (IGFBP-2): higher levels | number of elongated fibroblast like cells at the wound margin (mean per field) (fibroblast like cells): 99.2
